Experimental findings from patent US20200030288A1, “STATIN FOR PREVENTION/REDUCTION OF ISCHEMIA-RELATED DAMAGE” (Fundacio Institut De Recerca De L'Hospial De La Santa Creu …, priority 2017, published 2020) are described below.

The test system of assay [1] is mouse model for myocardial ischemia. Put plainly: Mouse model of myocardial ischemia by coronary ligation: infarct size and 8-OH-dG oxidative damage. Type of assay: in vivo, Male CH3 mice. The following applies: single i.p. dose 15 min after coronary ligation, 45 min ischemia; for reduction of size of infarction (% of total LV wall): vs vehicle-control. The method, then: (§1) Complete LAD coronary artery ligation was performed as follows. Male CH3 mice (8-10 weeks old, weighing 25-30 g) were intubated and anesthesized with a mixture of O2/isoflurane and mechanically ventilated (rate 90 breaths/min, tidal volume 0.1 mL). Rectal temperature was continuously monitored throughout the surgery and maintained within 37-38° C. using a heat pad and heat lamp. An anterior thoracotomy was performed; the heart was exposed and the LAD coronary artery was occluded with an intramural stitch (7-0 silk suture; consistent ligation of the left coronary artery as it emerges from under the left atrium) for 45 minutes. Success of complete coronary ligation was verified by electrocardiographic visualization of the ST-elevation-MI pattern that was monitored by high frequency ultrasounds with the Vevo2100 from Visualsonics and by the visualization of a pale, hypokinetic ventricle distal to the site of occlusion.
Ischemia was continued for another 30 min after administration of the single dose (i.e. altogether 45 min of ischemia), then mice were sacrificed and the heart was carefully excised for infarct size analysis.
Infarct size was determined by morphometric analysis. For this purpose, all mouse hearts were immersed in fixative solution (4% paraformaldehyde), embedded in OCT compound and cross-sectioned from apex to base (10 μm thick sections 200 μm distanced). Sections were stained with haematoxylin and eosin and morphometric infarct size analysis was determined using image analysis software (ImageJ, NIH). Infarct size was calculated by the sum of myocardial infarct areas between sections and expressed as a percentage of total LV wall. Three measurements per section were determined.
In addition, myocardial oxidative damage was also assessed. For this purpose, ischemic myocardial tissue was cut into 5-μm-thick slices for 8-OH-dG (Abcam ab48508) staining, a measurement indicative of oxidative stress-induced DNA-damage. Staining was calculated by a single blinded observer from an average of 5-fields/animal as % of stained area. Images were captured by Nikon Eclipse 80i microscope and digitized by Retiga 1300i Fast camera.

The subject of assay [2] is pig model of ischemia and reperfusion. Put plainly: Pig model of ischemia and reperfusion (hypercholesterolemic diet, 90 min occlusion, 2.5 h reperfusion). The class given is in vivo, pigs. The following applies: 0.3 mg/kg i.v. after 75 min of ischemia. The procedure:
Pigs were fed a hypercholesterolemic diet as in Example 11. After this 10-day diet period animals underwent a closed-chest 90 min mid-left anterior descending (LAD) coronary balloon occlusion. After 75 min of ischemia animals were randomized to intravenous infusion (femoral vein) of an active β-hydroxy acid derivative of simvastatin (R—OH—S; 0.3 mg/kg; n=12) or vehicle (0.9% NaCl; n=12). At minute 90, the balloon was deflated to achieve coronary artery reperfusion. Animals were reperfused for 2.5 h. Infarct size was determined morphometrically by Evan's Blue staining. To that end, 2.5 h post-reperfusion Evan's Blue dye was injected in the anesthetized pigs through the left atrium to outline the area-at-risk (AAR) after which the animals' hearts were arrested with potassium chloride and rapidly excised. Hearts were sectioned into 6 transverse slices parallel to the atrioventricular ring. Consecutive slices were alternatively collected for infarct size analysis (triphenyl tetrazolium chloride) and molecular studies of the ischemic and non-ischemic myocardium. Tissue samples obtained from the ischemic and non-ischemic myocardium all animals were pulverized and homogenized in Tripure® or lysis buffer for RNA and protein isolation, respectively. Protein levels of apoptosis markers (truncated-caspase-3) was assessed. Paraffin-embedded ischemic myocardial tissue of all animals was cut into 5-μm-thick slices for 8-hydroxyguanosine staining (Abcam ab48508), a measurement indicative of oxidative stress-induced DNA-damage, and OCT-embedded ischemic myocardial tissue of all animals was stained for neutrophil detection (anti-Neutrophil Elastase; Abcam). Staining was calculated by a single blinded observer from an average of 5-fields/animal as % of stained area. Images were captured by Nikon Eclipse 80i microscope and digitized by Retiga 1300i Fast camera. In addition, mitochondrial membrane potential (Δψm) was measured in the ischemic myocardium of all animals by flow cytometry using the ratiometric dye 5,5′,6,6′-tetrachloro-1,1′,3,3′-tetraethylbenzimidazol carbocyanine iodide (JC-1; Molecular Probes). Values were expressed as red fluorescence activity. Isolated mitochondria treated with valinomycin (Sigma), which decreases Δψm, were used as control (data not shown).

Assay [3] deals with mouse model of myocardial ischemia. As to the kind of experiment: Mouse coronary ligation model with AMPK inhibitor given before atorvastatin. The class given is in vivo, mice. The following applies: Compound C 30 mg/kg i.p. prior to atorvastatin 0.3 mg/kg at 15 min of ischemia; 45 min ischemia. The method, then: as §1
Infarct size was determined by morphometric analysis. […] Sections were stained with haematoxylin and eosin and morphometric infarct size analysis was determined using image analysis software (ImageJ, NIH). Infarct size was calculated by the sum of myocardial infarct areas between sections and expressed as a percentage of total LV wall. Three measurements per section were determined.
In addition, myocardial oxidative damage was also assessed. […]

Setting [4] is: ischemic myocardial tissue, 2.5 h reperfusion.

With `CCC(C)(C)C(=O)OC1CC(C)C=C2C=CC(C)C(CCC(O)CC(O)CC(=O)O)C21` (stereo not drawn) [β-OH-simvastatin, β-hydroxy acid form of simvastatin], the “reduction of size of infarction (% of total LV wall)” value in assay [1] was “around 50%”. Further, the “size of myocardial damage (ischemic damage+reperfusion damage; infarct size)” value in assay [2] (assessed 2.5 h after reperfusion) is recorded as “decreased”. Also, in assay [2] (setting [4]), the “expression of cleaved caspase-3” value was “significantly reduced”, the “mitochondrial potential (JC-1)” value was “preserved”, the “oxidative stress (8-hydroxyguanosine staining)” value was “decreased” and the recruitment of neutrophils entry is reported as “limited”.
As for `CC(ONC(=O)c1cc(C(F)(F)F)cc(C(F)(F)F)c1)C(=O)Nc1ccc(Cl)cc1` (stereo not shown) [CCG1423], in assay [1], the “reduction of oxidative damage (8-OH-dG staining) within the ischemic myocardium” value is 70% and the “reduction of size of infarction (% of total LV wall)” value is listed as “around 50%”.
Consider `c1cc(-c2cnn3cc(-c4ccc(OCCN5CCCCC5)cc4)cnc23)ccn1` [Compound C], for which, in assay [3], the “effect on infarct size reduction achieved by atorvastatin” value is “abolished” and the “effect on protection against oxidative damage (8-OHdG staining)” value is listed as “abolished”.
